From patent US12527741B2, “Modular dendron micelles for treatment of pulmonary diseases related to fibrosis and viral infection including COVID-19” (priority 2021, dated 2026)
Where no end group is shown, it is not given here.

Columns and labels:
fibroblast contractility = assay type: cell-based; conditions: TGFβ-induced
[1] = test system: TGFβ-induced NOX4/SM22α/FN1 expression; test: TGFβ-induced myofibroblast transition, Q-RT-PCR of NOX4, SM22α and FN1; assay type: cell-based
BRD isoforms = assay type: binding; conditions: data not shown
[2] = test system: idiopathic pulmonary fibrosis; conditions: IPF patients; cited from earlier work
[3] = Hydrophobicity (log P) of BRD4 inhibitors; assay type: physicochemical
[4] = Drug loading and encapsulation efficiency of PCL14K-DMs; assay type: physicochemical; conditions: initial loading 20% wt, Dialysis
Intravenous half-life = assay type: in vivo
[5] = test system: Bleomycin-induced fibrosis; test: Bleomycin-induced pulmonary fibrosis, therapeutic dosing; assay type: in vivo, mice
BRD3 = BRD3 (Homo sapiens, UniProt Q15059); test: Binding affinity to BRD3
Chain of BRD3 (Q15059 whole entry, species assumed, the tested form may be a part, canonical isoform): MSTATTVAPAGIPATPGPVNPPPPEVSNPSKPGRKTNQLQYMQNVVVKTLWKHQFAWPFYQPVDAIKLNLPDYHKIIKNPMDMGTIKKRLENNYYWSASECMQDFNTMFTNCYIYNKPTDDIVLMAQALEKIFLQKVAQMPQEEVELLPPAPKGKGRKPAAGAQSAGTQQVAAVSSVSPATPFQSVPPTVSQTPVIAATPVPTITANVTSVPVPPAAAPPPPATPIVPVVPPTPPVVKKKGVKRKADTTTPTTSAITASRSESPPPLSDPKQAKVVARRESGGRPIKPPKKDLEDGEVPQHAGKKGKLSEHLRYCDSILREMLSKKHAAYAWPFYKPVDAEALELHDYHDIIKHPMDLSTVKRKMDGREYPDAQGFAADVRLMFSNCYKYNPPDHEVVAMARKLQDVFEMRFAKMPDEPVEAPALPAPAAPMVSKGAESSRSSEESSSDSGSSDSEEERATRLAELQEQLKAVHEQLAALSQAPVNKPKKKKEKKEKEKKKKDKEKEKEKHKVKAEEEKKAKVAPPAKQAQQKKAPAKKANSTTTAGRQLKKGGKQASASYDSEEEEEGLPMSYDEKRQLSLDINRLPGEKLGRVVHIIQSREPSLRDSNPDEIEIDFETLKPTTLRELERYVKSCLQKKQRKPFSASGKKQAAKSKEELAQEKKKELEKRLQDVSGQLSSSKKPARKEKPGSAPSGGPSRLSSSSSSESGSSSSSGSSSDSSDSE
Excerpt: (§1) BRD4 is a member of the bromodomain and extraterminal (BET) protein family, containing two conserved bromodomains (BD). The BD is a high-affinity binding pocket for BRD4 binding to acetylated Lys residues on histones and transcription factors critical for histone acetyltransferase (HAT) activity. Small molecule BRD4 inhibitors that interact with the BRD4 BD inhibit BRD4 function by displacing BRD4 from genome binding sites, disrupting coactivator binding, and inhibiting its atypical HAT activity. A major limitation of pharmacological approaches to modifying BRD4 is that available inhibitors have poor selectivity for BRD isoforms. A third generation BRD4 inhibitor (BRD4i) with high selectivity for the BRD4 BD1 domain has been identified. This compound, ZL0591, binds with approximately 100 nM affinity to BRD4 BD1, but has 10× lower affinity for the BRD4 BD2 domain, and similarly has low affinity for BRD3.

BRD4 BD2 domain = BRD4 BD2 domain (Homo sapiens, UniProt O60885); test: Binding affinity to BRD4 BD2
Excerpt: as §1

BRD4 BD1 = BRD4 BD1 (Homo sapiens, UniProt O60885); test: Binding affinity to BRD4 BD1
Excerpt: as §1

PD-L1 = PD-L1 (Homo sapiens, UniProt Q9NZQ7); conditions: SPR
Chain of PD-L1 (Q9NZQ7 19-290): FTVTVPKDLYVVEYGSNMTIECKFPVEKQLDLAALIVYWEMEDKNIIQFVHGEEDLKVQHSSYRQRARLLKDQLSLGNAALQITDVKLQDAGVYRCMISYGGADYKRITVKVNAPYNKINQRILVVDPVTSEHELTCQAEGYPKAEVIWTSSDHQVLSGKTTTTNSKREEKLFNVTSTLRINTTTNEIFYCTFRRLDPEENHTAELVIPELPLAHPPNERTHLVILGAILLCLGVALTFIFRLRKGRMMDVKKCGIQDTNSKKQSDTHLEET

7860 cells = test: Binding to high PD-L1 expressing cells; assay type: cell-based; conditions: fluorescence
Excerpt: (§2) (SEQ ID NO: 5), optimized from the literature.

MCF-7 cells = test: Binding to cells with low PD-L1 expression; assay type: cell-based
Excerpt: as §2

For `Cc1sc2c(c1C)C(c1ccc(Cl)cc1)=N[C@@H](CC(=O)OC(C)(C)C)c1nnc(C)n1-2` [JQ1], the “Contractility (retraction of collagen plugs)” value (fibroblast contractility) was “effectively inhibited”, the FN1 expression [1] was “effectively blocked” and the NOX4 expression [1] was “effectively blocked”. The SM22α expression [1] was “effectively blocked” and the “Discrimination between BRD isoforms” value (BRD isoforms) was “no discrimination”.

For `COC(=O)c1ccc2c(c1)NC(=O)/C2=C(\Nc1ccc(N(C)C(=O)CN2CCN(C)CC2)cc1)c1ccccc1` [Nintedanib, nintedanib], the “Decrease/loss of forced vital capacity (FVC)” value [2] is listed as “efficacy was shown”.

With `COc1cc(OC)c2c(=O)cc(-c3cc(C)c(OC[C@H](O)CN4CCN(C)CC4)c(C)c3)oc2c1` [ZL0516] the “log P” value [3] was 2.89, the “Drug Loading %” value [4] was 0.70 ± 0.17% and the “Encapsulation Efficiency %” value [4] was 2.52 ± 0.17%.

With `O=C(Nc1ccc(C(F)(F)F)cc1)Nc1ccc(S(=O)(=O)N2CCC[C@H]2CN2CCC(O)CC2)cc1` [ZL0591] the “Intravenous T1/2” value (Intravenous half-life) was 11.8 h, the “Pulmonary collagen content (hydroxyproline in total lung homogenates)” value ([5]; 10 mg/kg/dose systemic (IP), started 14 d after bleomycin, 14 d of treatment) was “significantly reduced” and the Blood oxygen saturation ([5]; bleomycin- and BRD4 inhibitor-treated vs controls) was “increase”. For the same molecule, the “Alveolar consolidation and fibrotic pattern (Massons Trichrome)” value ([5]; fixed lung sections) was “substantially reduced”, the “Modified Ashcroft indices” value ([5]; scored by independent pathologist) was “reduction in Ashcroft indices was statistically significant” and the “Lung density by microCT” value ([5]; vs bleomycin treated only) was “reduction”. For the same molecule, the “Affinity for BRD3” value (BRD3) was “low affinity”, the “Lower affinity for BRD4 BD2 domain relative to BD1” value (BRD4 BD2 domain) was 10 × and the Kd (BRD4 BD1) was roughly 100 nM.

For `Cc1ccc(=O)n(-c2ccccc2)c1` [pirfenidone], the “Decrease/loss of forced vital capacity (FVC)” value [2] is given as “slows” and the Progression-free survival [2] is given as “improves”.

With “G7-pPD1: PD-L1-binding peptide pPD-1 conjugated to G7 PAMAM dendrimers (HVVWHRESPSGQTDTLAA; also: conjugated to G7 PAMAM dendrimers, site not given here)” the “KD compared with full antibody (aPD-L1)” value (PD-L1) was “comparable”, the “Binding to PD-L1 expressing cells” value (7860 cells) was “selective binding” and the “Binding to PD-L1 expressing cells” value (7860 cells; listed as dendrimer-pPD-1) was “specific interaction”. For the same molecule, the “Interaction with low PD-L1 expression cells” value (MCF-7 cells) was “lack of observed interactions”.
